Experimental data as given in patent publication US20160296722A1, “METHOD OF TREATING DEPRESSION” (Korea Bio Medical Science Institute, priority 2015, published 2016).

Tests used:
[1] = system: DA; experiment: DA level in brain after FST (DA ELISA kit); format: in vivo, mice; settings: mouse brain after FST, 10 mg/kg orally once daily for 3 weeks, versus untreated control group, p<0.05
Procedure: Supernatants were collected and stored at −70° C.

[2] = system: ICR mice; experiment: Forced swimming test (FST), immobility time; format: in vivo; settings: male ICR mice, mean±SEM
Procedure: Male ICR mice (3 weeks old) weighing 10-12 g were purchased from the Dae-Han Experimental Animal Center (Daejeon, Republic of Korea), and subsequently maintained at the College of Korean Medicine, Kyung Hee University. Animals were housed 5-10% in as laminar air-flow room maintained at a temperature of 22±1° C. and a relative humidity of 55±10% under a 12:12 L/D cycle light (on at 7:00 h) throughout the study. Food and water were provided ad libitum. All manipulations were carried out between 9:00 and 16:00 h and no animal was used more than once.
Mice were exposed to JDS music daily for 3 weeks. All experiments were carried out in a quite environment other sounds.
After measuring immobility times, 10 mice were allocated to each of the five study groups in an immobility time-matched manner. […] The FST was performed as the end of the 3 weeks administration period. During the 6 min FST, immobility times were measured as described by Porsolt et al. (1977). The FST apparatus consisted of two Plexiglas cylinders (height: 25 cm, diameter: 10 cm) placed side by side in a Makrolon cage filled with water at 23-25° C. […] Total duration of immobility, during the 4 min period from 2 to 6 min was recorded. […]

[3] = system: BDNF; experiment: BDNF expression in brain, Western blot; format: in vivo, mice; settings: mouse brain after FST, 10 mg/kg orally once daily for 3 weeks, versus untreated control group
Procedure: (§1) Immediately after the FST, mice were sacrificed, brains were rapidly removed, and frozen in liquid nitrogen. Samples were dissected and homogenized in ice-cold buffer supplemented with 0.2 mM DTT, 0.5 mM sodium vanadate, and protease inhibitors. NaCl was then added to a final concentration of 0.45 M, and homogenates were centrifuged at 15,000×g for 30 min. Supernatants were collected and stored at −70° C. Samples were subjected to Western blot analysis for ERK, phosphorylated-ERK (PERK), BDNF, and GAPDH. Supernatant samples obtained as described above were heated at 95° C. for 5min and briefly cooled on ice. After centrifugation, 50 μg aliquots were resolved by 12% SDS-polyacrylamide gel electrophoresis. Proteins were then transferred to nitrocellulose membranes, which were blocked for 2 h with phosphate-buffered saline (PBS) containing Tween-20 (PBST) containing 6% bovine serum albumin. Membranes were incubated overnight at 4° C. with primary antibodies diluted 1:500 with PBST, and washed nine times for 10 min with PBST. For protein detection, blots were incubated with secondary antibodies conjugated peroxidase (1:5000) for 2 h. Finally, protein bands were visualized using an enhanced chemiluminescence kit (GE Healthcare, Piscataway, N.J., USA) according to the manufacturer's instructions.

[4] = system: pERK; experiment: ERK phosphorylation in brain, Western blot; format: in vivo, mice; settings: mouse brain after FST, 10 mg/kg orally once daily for 3 weeks, p<0.05
Procedure: as §1

CNCCC(Oc1ccc(C(F)(F)F)cc1)c1ccccc1 (centres unmarked) [fluoxetine, Fluoxetine]
DA level in brain [1]: significantly higher than in the untreated control group
Mean immobility time after the 3-week treatment period ([2]; 10 mg/kg orally once daily for 3 weeks, untreated control 199.3±11.8 s, p<0.05): 60.4 ± 14.3 s
Mean baseline immobility time ([2]; baseline (0 day), before treatment): 94.2 ± 23.9 s
BDNF level [3]: significantly increased BDNF levels
pERK level [4]: significantly elevated pERK levels
